Reference: US7919484B2, “Combination therapy” (Xenon Pharmaceuticals Inc., priority 2005, dated 2011)

Tests used:
[1] = cited from earlier work
[2] = target: T1, SCD (Homo sapiens, UniProt O00767); conditions: known from the art; cited from earlier work
T1 sequence (O00767 1-359): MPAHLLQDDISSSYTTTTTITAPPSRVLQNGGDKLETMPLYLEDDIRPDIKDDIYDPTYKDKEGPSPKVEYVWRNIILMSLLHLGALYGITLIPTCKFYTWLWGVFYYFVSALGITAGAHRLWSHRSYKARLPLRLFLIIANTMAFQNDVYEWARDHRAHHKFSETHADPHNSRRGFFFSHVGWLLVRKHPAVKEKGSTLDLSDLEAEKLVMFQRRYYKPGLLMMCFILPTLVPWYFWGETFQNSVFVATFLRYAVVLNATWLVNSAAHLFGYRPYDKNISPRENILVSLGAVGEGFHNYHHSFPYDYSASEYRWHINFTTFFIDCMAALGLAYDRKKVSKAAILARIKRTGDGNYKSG

[3] = target: T2, SCD enzyme (Rattus norvegicus, UniProt P07308); test: Plasma desaturation index (DI) in ZDF rats after treatment (Example 2); assay type: in vivo; conditions: plasma triglycerides, mean +/- standard deviation, rosiglitazone 10 mg/kg, XEN1 5 mg/kg
T2 construct: indicator of endogenous SCD1 activity; from tissue; host or cells: living male Zucker Diabetic Fatty rats, dosed orally
T2 sequence (P07308 1-358): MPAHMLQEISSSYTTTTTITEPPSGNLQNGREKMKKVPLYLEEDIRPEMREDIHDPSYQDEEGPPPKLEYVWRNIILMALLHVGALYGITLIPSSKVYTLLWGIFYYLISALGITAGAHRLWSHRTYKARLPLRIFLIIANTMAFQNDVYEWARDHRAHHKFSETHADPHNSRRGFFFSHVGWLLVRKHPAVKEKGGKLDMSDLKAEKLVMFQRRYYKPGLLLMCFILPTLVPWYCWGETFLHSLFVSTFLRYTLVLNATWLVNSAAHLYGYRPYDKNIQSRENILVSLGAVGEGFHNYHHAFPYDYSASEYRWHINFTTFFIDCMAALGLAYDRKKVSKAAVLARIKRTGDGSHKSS
Description: Another suitable method is to indirectly measure the SCD-1 inhibitors impact on inhibition of SCD enzyme by measuring a subject's desaturation index (‘DI’) after administration of the SCD-1 inhibitors. DI as employed in this specification means the ratio of the product over the substrate for the SCD enzyme as measured from a given tissue sample. This may be calculated using three different equations 18:1n−9/18:0 (oleic acid over stearic acid); 16:1n−7/16:0 (palmitoleic acid over palmitic acid); and/or 16:1n−7+18:1n−7/16:0 (measuring all reaction products of 16:0 desaturation over 16:0 substrate). DI is primarily measured in liver or plasma triglycerides, but may also be measured in other selected lipid fractions from a variety of tissues.
Desaturation indexes were calculated from the fatty acid profile of circulating plasma triglycerides. […] An additional 0.5 mL of chloroform containing 0.05 mg/mL of glyceryl-triheptadecanoin as an internal standard were also added. Samples were thoroughly vortexed and the phases separated by centrifugation at 2000 rpm for 8 minutes. […]
3 desaturation indexes were calculated from the chromatograms based on absolute peak areas; the ratio of palmitoleic acid to palmitic acid (C16:1n7/C16:0), the ratio of oleic acid to stearic acid (C18:1n9/C18:0) and the ratio of palmitoleic acid and vaccenic acid to palmitic acid (C16:1n7+C18:1n7/C16:0).

[4] = Effect of SCD-1 inhibitor and rosiglitazone co-administration on body weight in ZDF rats (Example 1); assay type: in vivo, Male Zucker Diabetic Fatty Rats (ZDF); conditions: mean +/- SEM, Rosi 10 mg/kg, XEN103 5 mg/kg daily po; for Final Body Weight: end of treatment
Protocol: Male Zucker Diabetic Fatty Rats (ZDF) began treatment at the age of 7 weeks of age. Animals were housed three to a cage in a temperature, humidity and light controlled room. The animals were fed a standard rodent diet and had free access to water. Animals were randomized into groups of 9 and placed in the following experimental groups for daily dosing (10:30 am) as described in table 5 below. Animals were weighed three times per week. Food intake was recorded three times per week. XEN 1 is a representative SCD-1 inhibitor compound of the invention. The formulations were: • Vehicle=1% CMC:0.1% Tween 20:10% PG • Rosi-10=rosiglitazone 10 mg/kg in 1% CMC:0.1% Tween 20:10% PG • Rosi-10+XEN1=rosiglitazone 10 mg/kg+XEN1 5 mg/kg in 1% CMC:0.1% Tween 20:10% PG • XEN1=XEN1 5 mg/kg in 1% CMC:0.1% Tween 20:10% PG

| SMILES | Inhibition of SCD activity (in words) [2] | Final Body Weight [4] [g] | Body Weight Gain - 5 week treatment [4] [g] | also measured |
| --- | --- | --- | --- | --- |
| N[C@@H]1C[C@H]1c1ccccc1 (racemic) [Tranylcypromine] | – | – | – | Side Effect (in words) ([1]; human, in vivo): Adverse weight |
| CCCCCCCCC1=C(CCCCCCCC(=O)O)C1 [Sterculic acid, 8-(2-octylcyclopropenyl)octanoic acid] | non-specifically inhibit SCD activity | – | – | – |
| O=C(NCCC1CC1)c1ccc(N2CCN(C(=O)c3cc(F)ccc3C(F)(F)F)CC2)nn1 [XEN 1] | – | 312.2 ± 5.1 | 150.7 ± 3.5 | Plasma desaturation index (DI) C16:1n7/C16:0 [3]: 0.043 +/− 0.004; Plasma desaturation index (DI) C18:1n9/C18:0 [3]: 5.874 +/− 0.422 |
| CCCCCCCCC1=C(CCCCCCC(=O)O)C1 [malvalic acid, 7-(2-octylcyclopropenyl)heptanoic acid] | non-specifically inhibit SCD activity | – | – | – |
| CC(=O)O[C@]1(C(C)=O)CC[C@H]2[C@@H]3C[C@H](C)C4=CC(=O)CC[C@]4(C)[C@H]3CC[C@@]21C [medroxyprogesterone acetate] | – | – | – | Side Effect: increase in body weight ([1]; 6 months): 6.2% increase in |
| CN(CCOc1ccc(CC2SC(=O)NC2=O)cc1)c1ccccn1 (centres unmarked) [rosiglitazone] | – | 485.3 ± 7.3 | 321.9 ± 6.5 | Weight gain associated with low-dose treatment ([1]; 4 mg/day, after one year treatment): about 8 kg/year |
